Measured values from article PMC7794297.
Like-named read-outs stand apart in the source and are kept apart here.

Key:
apo and holo GOx = biological target: apo and holo GOx; set-up: method as in PMID 10491329; settings: apo and holo GOx forms; cited from earlier work
glucose oxidase (GOx) [1] = biological target: T1, glucose oxidase (GOx) (Aspergillus niger, UniProt P13006); assay: Tryptophan fluorescence emission binding experiments with GOx; set-up: purchased Sigma Aldrich; settings: for Kd: GOx 0.8 µM, Tris pH 7.8, 5% DMSO, 10 °C
T1 sequence (P13006 17-605): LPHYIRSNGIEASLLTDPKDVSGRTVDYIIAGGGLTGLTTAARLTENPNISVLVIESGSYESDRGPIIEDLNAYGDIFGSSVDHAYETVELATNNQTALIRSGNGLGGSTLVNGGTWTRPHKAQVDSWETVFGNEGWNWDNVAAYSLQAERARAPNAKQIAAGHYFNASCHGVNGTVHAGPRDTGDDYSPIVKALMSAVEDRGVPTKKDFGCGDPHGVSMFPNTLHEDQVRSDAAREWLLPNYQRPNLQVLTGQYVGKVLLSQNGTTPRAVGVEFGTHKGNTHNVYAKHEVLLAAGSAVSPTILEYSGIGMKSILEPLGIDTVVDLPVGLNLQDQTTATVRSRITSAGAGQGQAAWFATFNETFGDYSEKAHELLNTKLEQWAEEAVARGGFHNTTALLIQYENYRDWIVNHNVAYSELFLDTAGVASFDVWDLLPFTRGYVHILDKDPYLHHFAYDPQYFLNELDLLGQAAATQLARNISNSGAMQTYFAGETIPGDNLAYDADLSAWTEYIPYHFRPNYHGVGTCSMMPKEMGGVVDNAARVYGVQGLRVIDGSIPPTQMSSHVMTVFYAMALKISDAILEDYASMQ

glucose oxidase (GOx) [2] = biological target: T1, glucose oxidase (GOx); assay: GOx-DCL in presence of DTNB; set-up: purchased Sigma Aldrich; settings: large excess of DTNB
Method: The equilibration of the DCL was completed after 24 h (Fig. 9) and the oligomers were identified by HPLC-MS (Supplementary Figs. 4–20). The precise composition of the DCL (with and without GOx), was assessed by measuring the relative peak area (RPA). The normalized change of RPA was used to quantify the protein influence in the final DCL showing the amplification of the dimer of compound 4, that is (4)2 (Fig. 9b). Control experiments were set up to verify that the amplification of the dimer was not due to unspecific binding. Firstly the GOx was replaced by the bovine serum albumin (BSA). A stability study of BSA under the DCL conditions was performed using a fluorescence technique confirming the BSA stability in the DCL experiment (Supplementary Fig. 48)[50].
% v/v DMSO (266 µL). The DCL was stabilized for 24 hours at 6 °C. Then, BS A was removed by ultracentrifugation thr ough an Amicon ultra -filter (10 KDa) and the solution was analyzed by […]
GOx-DCL in presence of DTNB.
GOx- directed DCL: Dithiols 1-2 […]
To elucídate the type of inhibitor, Lineweaver-Burk plot were performed. GOx activity was measured at increasing concentration s of glucose (0.2 mM to 4 mM) and in presence and absence of (4)2 and DTNB. According to fluorescence s tudies and their Kd’ values, the concentration of the inhibitors were chosen. […]
IC50 was determined using different concentrations of inhibitors DTNB and (4)2. […]

glucose oxidase (GOx) [3] = biological target: T1, glucose oxidase (GOx); assay: GOx activity assay, glucose oxidase-horseradish peroxidase coupled system with o-dianisidine; format: biochemical; set-up: purchased Sigma Aldrich; settings: for 1/Vo: Lineweaver-Burk;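 as to GOx activity: GOx activity followed by o-dianisidine absorbance at 500 nm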
[4] = [Glucose] 1.6 μM, Supplementary Figure 52 a
[5] = [Glucose] 32 μM, Supplementary Figure 52 a
[6] = [Glucose] 48 μM, Supplementary Figure 52 a
[7] = [Glucose] 400 μM, Supplementary Figure 52 a
[8] = [Glucose] 800 μM, Supplementary Figure 52 a
[9] = [Glucose] 2000 μM, Supplementary Figure 52 a
[10] = [Glucose] 4000 μM, Supplementary Figure 52 a
[11] = [Glucose] 8000 μM, Supplementary Figure 52 a
[12] = [Glucose] 12000 μM, Supplementary Figure 52 a
[13] = [Glucose] 20000 μM, Supplementary Figure 52 a
[14] = [DTNB] 8 uM, Supplementary Figure 52 c
[15] = [DTNB] 40 uM, Supplementary Figure 52 c
[16] = [DTNB] 80 uM, Supplementary Figure 52 c
[17] = [DTNB] 200 uM, Supplementary Figure 52 c
[18] = [DTNB] 400 uM, Supplementary Figure 52 c

Question: For `OC[C@H]1O[C@@H](O)[C@H](O)[C@@H](O)[C@@H]1O` [β-D-glucose], which Kd (apo and holo GOx) is on record?
Answer: ~10000 µM

Question: What about the Kd (glucose oxidase (GOx) [1]; read-out: apparent dissociation constant) of the same compound?
Answer: 1100 ± 20 µM

Question: What about the Emmsion average (glucose oxidase (GOx) [1]; [4]) of the same compound?
Answer: 4205310

Question: What about the “Normalized Fluorescence” value (glucose oxidase (GOx) [1]; [4]) of the same compound?
Answer: 0.03401

Question: And the Emmsion average (glucose oxidase (GOx) [1]; [5])?
Answer: 4080311

Question: And the “Normalized Fluorescence” value (glucose oxidase (GOx) [1]; [5])?
Answer: 0.00328

Question: And the Emmsion average (glucose oxidase (GOx) [1]; [6])?
Answer: 4060405

Question: And the “Normalized Fluorescence” value (glucose oxidase (GOx) [1]; [6])?
Answer: -0.00162

Question: And the Emmsion average (glucose oxidase (GOx) [1]; [7])?
Answer: 4998302

Question: What about the “Normalized Fluorescence” value (glucose oxidase (GOx) [1]; [7]) of the same compound?
Answer: 0.229

Question: What about the Emmsion average (glucose oxidase (GOx) [1]; [8]) of the same compound?
Answer: 5886318

Question: What about the “Normalized Fluorescence” value (glucose oxidase (GOx) [1]; [8]) of the same compound?
Answer: 0.4473

Question: And the Emmsion average (glucose oxidase (GOx) [1]; [9])?
Answer: 6538644

Question: What about the “Normalized Fluorescence” value (glucose oxidase (GOx) [1]; [9]) of the same compound?
Answer: 0.6077

Question: What about the Emmsion average (glucose oxidase (GOx) [1]; [10]) of the same compound?
Answer: 6499875

Question: And the “Normalized Fluorescence” value (glucose oxidase (GOx) [1]; [10])?
Answer: 0.5982

Question: What about the Emmsion average (glucose oxidase (GOx) [1]; [11]) of the same compound?
Answer: 5944287

Question: What about the “Normalized Fluorescence” value (glucose oxidase (GOx) [1]; [11]) of the same compound?
Answer: 0.4616

Question: What about the Emmsion average (glucose oxidase (GOx) [1]; [12]) of the same compound?
Answer: 7469372

Question: And the “Normalized Fluorescence” value (glucose oxidase (GOx) [1]; [12])?
Answer: 0.8366

Question: And the Emmsion average (glucose oxidase (GOx) [1]; [13])?
Answer: 7323012

Question: What about the “Normalized Fluorescence” value (glucose oxidase (GOx) [1]; [13]) of the same compound?
Answer: 0.8006

Question: For `O=C(O)c1cc(SSc2ccc([N+](=O)[O-])c(C(=O)O)c2)ccc1[N+](=O)[O-]` [DTNB, 5,5′-dithiobis-2-nitrobenzoic acid, reference compound], which “effect on GOx-directed DCL” value (glucose oxidase (GOx) [2]) is on record?
Answer: prevented the amplification of any other ligands except DTNB

Question: What about the “GOx Activity” value (glucose oxidase (GOx) [3]; IC50 data, inhibitor 1.4 nM, glucose 10 mM) of the same compound?
Answer: 0.0674 min⁻¹

Question: What about the “GOx Activity” value (glucose oxidase (GOx) [3]; IC50 data, inhibitor 3.5 nM, glucose 10 mM) of the same compound?
Answer: 0.0701 min⁻¹

Question: What about the “GOx Activity” value (glucose oxidase (GOx) [3]; IC50 data, inhibitor 7.0 nM, glucose 10 mM) of the same compound?
Answer: 0.063 min⁻¹

Question: And the “GOx Activity” value (glucose oxidase (GOx) [3]; IC50 data, inhibitor 14.0 nM, glucose 10 mM)?
Answer: 0.0639 min⁻¹

Question: And the “GOx Activity” value (glucose oxidase (GOx) [3]; IC50 data, inhibitor 70.0 nM, glucose 10 mM)?
Answer: 0.0603 min⁻¹

Question: And the “GOx Activity” value (glucose oxidase (GOx) [3]; IC50 data, inhibitor 140.0 nM, glucose 10 mM)?
Answer: 0.0454 min⁻¹

Question: And the “GOx Activity” value (glucose oxidase (GOx) [3]; IC50 data, inhibitor 700.0 nM, glucose 10 mM)?
Answer: 0.0399 min⁻¹

Question: What about the “GOx Activity” value (glucose oxidase (GOx) [3]; IC50 data, inhibitor 1400.0 nM, glucose 10 mM) of the same compound?
Answer: 0.0322 min⁻¹

Question: And the “GOx Activity” value (glucose oxidase (GOx) [3]; IC50 data, inhibitor 1428571.0 nM, glucose 10 mM)?
Answer: 0.0388 min⁻¹

Question: What about the “GOx Activity” value (glucose oxidase (GOx) [3]; Ki data, inhibitor 3,5·10^-8 M, [Glucose] 0.0002 M) of the same compound?
Answer: 0.0024 min⁻¹

Question: And the “GOx Activity” value (glucose oxidase (GOx) [3]; Ki data, inhibitor 3,5·10^-8 M, [Glucose] 0.0007 M)?
Answer: 0.0073 min⁻¹

Question: And the “GOx Activity” value (glucose oxidase (GOx) [3]; Ki data, inhibitor 3,5·10^-8 M, [Glucose] 0.0014 M)?
Answer: 0.013 min⁻¹

Question: What about the “GOx Activity” value (glucose oxidase (GOx) [3]; Ki data, inhibitor 3,5·10^-8 M, [Glucose] 0.0028 M) of the same compound?
Answer: 0.0254 min⁻¹

Question: And the “GOx Activity” value (glucose oxidase (GOx) [3]; Ki data, inhibitor 3,5·10^-8 M, [Glucose] 0.004 M)?
Answer: 0.0298 min⁻¹

Question: And the “GOx Activity” value (glucose oxidase (GOx) [3]; Ki data, inhibitor 7·10^-8 M, [Glucose] 0.0002 M)?
Answer: 0.0022 min⁻¹

Question: What about the “GOx Activity” value (glucose oxidase (GOx) [3]; Ki data, inhibitor 7·10^-8 M, [Glucose] 0.0007 M) of the same compound?
Answer: 0.0054 min⁻¹

Question: What about the “GOx Activity” value (glucose oxidase (GOx) [3]; Ki data, inhibitor 7·10^-8 M, [Glucose] 0.0014 M) of the same compound?
Answer: 0.0121 min⁻¹

Question: What about the “GOx Activity” value (glucose oxidase (GOx) [3]; Ki data, inhibitor 7·10^-8 M, [Glucose] 0.0028 M) of the same compound?
Answer: 0.0197 min⁻¹

Question: What about the “GOx Activity” value (glucose oxidase (GOx) [3]; Ki data, inhibitor 7·10^-8 M, [Glucose] 0.004 M) of the same compound?
Answer: 0.0279 min⁻¹

Question: What about the “GOx Activity” value (glucose oxidase (GOx) [3]; Ki data, inhibitor 14·10^-8 M, [Glucose] 0.0002 M) of the same compound?
Answer: 0.0008 min⁻¹

Question: What about the “GOx Activity” value (glucose oxidase (GOx) [3]; Ki data, inhibitor 14·10^-8 M, [Glucose] 0.0007 M) of the same compound?
Answer: 0.004 min⁻¹

Question: And the “GOx Activity” value (glucose oxidase (GOx) [3]; Ki data, inhibitor 14·10^-8 M, [Glucose] 0.0014 M)?
Answer: 0.0074 min⁻¹

Question: And the “GOx Activity” value (glucose oxidase (GOx) [3]; Ki data, inhibitor 14·10^-8 M, [Glucose] 0.0028 M)?
Answer: 0.015 min⁻¹

Question: And the “GOx Activity” value (glucose oxidase (GOx) [3]; Ki data, inhibitor 14·10^-8 M, [Glucose] 0.004 M)?
Answer: 0.0236 min⁻¹

Question: And the 1/Vo (glucose oxidase (GOx) [3]; inhibitor 0,07 µM, 1/[glucose] 250 M-1)?
Answer: 32.9749 min

Question: And the 1/Vo (glucose oxidase (GOx) [3]; inhibitor 0,07 µM, 1/[glucose] 357 M-1)?
Answer: 56.0355 min

Question: What about the 1/Vo (glucose oxidase (GOx) [3]; inhibitor 0,07 µM, 1/[glucose] 714 M-1) of the same compound?
Answer: 65.6495 min

Question: And the 1/Vo (glucose oxidase (GOx) [3]; inhibitor 0,07 µM, 1/[glucose] 1430 M-1)?
Answer: 135.55 min

Question: And the 1/Vo (glucose oxidase (GOx) [3]; inhibitor 0,07 µM, 1/[glucose] 5000 M-1)?
Answer: 532.407 min

Question: And the 1/Vo (glucose oxidase (GOx) [3]; inhibitor 0,14 µM, 1/[glucose] 250 M-1)?
Answer: 37.1744 min

Question: What about the 1/Vo (glucose oxidase (GOx) [3]; inhibitor 0,14 µM, 1/[glucose] 357 M-1) of the same compound?
Answer: 57.2815 min

Question: What about the 1/Vo (glucose oxidase (GOx) [3]; inhibitor 0,14 µM, 1/[glucose] 714 M-1) of the same compound?
Answer: 76.102 min

Question: What about the 1/Vo (glucose oxidase (GOx) [3]; inhibitor 0,14 µM, 1/[glucose] 1430 M-1) of the same compound?
Answer: 148 min

Question: What about the 1/Vo (glucose oxidase (GOx) [3]; inhibitor 0,14 µM, 1/[glucose] 5000 M-1) of the same compound?
Answer: 505.051 min

Question: And the “Inhibitor Type” value (glucose oxidase (GOx) [3]; Lineweaver–Burk plots)?
Answer: non-competitive

Question: And the Ki (glucose oxidase (GOx) [3]; non-competitive inhibition model, 37 °C, sodium acetate buffer pH 5.1)?
Answer: 0.2 ± 0.02 µM

Question: And the “Emission Average” value (glucose oxidase (GOx) [1]; [14])?
Answer: 1800741

Question: And the “Normalized Fluorescence” value (glucose oxidase (GOx) [1]; [14])?
Answer: 0.1466

Question: And the “Emission Average” value (glucose oxidase (GOx) [1]; [15])?
Answer: 955958

Question: And the “Normalized Fluorescence” value (glucose oxidase (GOx) [1]; [15])?
Answer: 0.5470

Question: And the “Emission Average” value (glucose oxidase (GOx) [1]; [16])?
Answer: 361199

Question: And the “Normalized Fluorescence” value (glucose oxidase (GOx) [1]; [16])?
Answer: 0.8288

Question: What about the “Emission Average” value (glucose oxidase (GOx) [1]; [17]) of the same compound?
Answer: 25171.8

Question: And the “Normalized Fluorescence” value (glucose oxidase (GOx) [1]; [17])?
Answer: 0.9881

Question: What about the “Emission Average” value (glucose oxidase (GOx) [1]; [18]) of the same compound?
Answer: 521.51

Question: What about the “Normalized Fluorescence” value (glucose oxidase (GOx) [1]; [18]) of the same compound?
Answer: 0.9998

Question: And the Kd (glucose oxidase (GOx) [1]; apparent dissociation constant, read-out: Kd')?
Answer: 64 ± 2 µM
